Experimental data published in PubChem BioAssay AID2060903 (Molecular Pharmacology Branch, DTP, NCI, 2025).

Test system: 377384-186-R-J1-PDC complex spheroid viability
Experiment: Anticancer human tumor 377384-186-R-J1-PDC patient-derived pancreatic carcinoma cell line growth inhibition [RAS]
Conditions: for IC50: curve of first compound; for viability, T/C: stronger effect = lower value
Outline: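 Multi-cell-type spheroids: tumor cells plus HUVEC endothelial cells and mesenchymal stem cells. RAS-pathway inhibitors were combined with targeted agents, each dosed in half-log steps down from clinical Cmax, or from 10 microM when Cmax was unknown.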

[1] = second compound 0.000949 µM, first compound 0.00316 µM
[2] = second compound 0.000949 µM, first compound 0.01 µM
[3] = second compound 0.000949 µM, first compound 0.0316 µM
[4] = second compound 0.000949 µM, first compound 0.1 µM
[5] = second compound 0.000949 µM, first compound 0.316 µM
[6] = second compound 0.000949 µM, first compound 1 µM
[7] = second compound 0.003 µM, first compound 0.00316 µM
[8] = second compound 0.003 µM, first compound 0.01 µM
[9] = second compound 0.003 µM, first compound 0.0316 µM
[10] = second compound 0.003 µM, first compound 0.1 µM
[11] = second compound 0.003 µM, first compound 0.316 µM
[12] = second compound 0.003 µM, first compound 1 µM
[13] = second compound 0.00949 µM, first compound 0.00316 µM
[14] = second compound 0.00949 µM, first compound 0.01 µM
[15] = second compound 0.00949 µM, first compound 0.0316 µM
[16] = second compound 0.00949 µM, first compound 0.1 µM
[17] = second compound 0.00949 µM, first compound 0.316 µM
[18] = second compound 0.00949 µM, first compound 1 µM
[19] = second compound 0.03 µM, first compound 0.00316 µM
[20] = second compound 0.03 µM, first compound 0.01 µM
[21] = second compound 0.03 µM, first compound 0.0316 µM
[22] = second compound 0.03 µM, first compound 0.1 µM
[23] = second compound 0.03 µM, first compound 0.316 µM
[24] = second compound 0.03 µM, first compound 1 µM
[25] = second compound 0.0949 µM, first compound 0.00316 µM
[26] = second compound 0.0949 µM, first compound 0.01 µM
[27] = second compound 0.0949 µM, first compound 0.0316 µM
[28] = second compound 0.0949 µM, first compound 0.1 µM
[29] = second compound 0.0949 µM, first compound 0.316 µM
[30] = second compound 0.0949 µM, first compound 1 µM
[31] = second compound 0.3 µM, first compound 0.00316 µM
[32] = second compound 0.3 µM, first compound 0.01 µM
[33] = second compound 0.3 µM, first compound 0.0316 µM
[34] = second compound 0.3 µM, first compound 0.1 µM
[35] = second compound 0.3 µM, first compound 0.316 µM
[36] = second compound 0.3 µM, first compound 1 µM
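Note: spheroids exposed to compounds for seven days before readout.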

`C=CC(=O)N1CCN(c2nc(OCC3CCCN3C)nc3c(F)c(-c4nc(N)cc(C)c4C(F)(F)F)c(Cl)cc23)C(C)C1` (stereo unspecified) + CCn1c(-c2cc(N3CCN(C)CC3)cnc2C(C)OC)c2c3cc(ccc31)-c1csc(n1)CC(NC(=O)C1CC1C)C(=O)N1CCCC(N1)C(=O)OCC(C)(C)C2 was tested. Which IC50 (second compound 0.000949 µM) did it give?
The IC50 was over 1000 nM.

And the IC50 (second compound 0.003 µM)?
Its IC50 is under 3.16 nM.

What about the IC50 (second compound 0.00949 µM) of the same compound?
The IC50 was under 3.16 nM.

What about the IC50 (second compound 0.03 µM) of the same compound?
Its IC50 is under 3.16 nM.

And the IC50 (second compound 0.0949 µM)?
The IC50 was under 3.16 nM.

What about the IC50 (second compound 0.3 µM) of the same compound?
Its IC50 is under 3.16 nM.

And the viability, T/C [1]?
Its viability, T/C is 57.6%.

What about the viability, T/C [2] of the same compound?
The viability, T/C was 48.5%.

What about the viability, T/C [3] of the same compound?
Its viability, T/C is 58%.

What about the viability, T/C [4] of the same compound?
The viability, T/C was 62.1%.

What about the viability, T/C [5] of the same compound?
Its viability, T/C is 61.6%.

And the viability, T/C [6]?
Its viability, T/C is 48%.

What about the viability, T/C [7] of the same compound?
Its viability, T/C is 19.5%.

And the viability, T/C [8]?
Its viability, T/C is 19.7%.

What about the viability, T/C [9] of the same compound?
Its viability, T/C is 21.2%.

And the viability, T/C [10]?
The viability, T/C was 19.3%.

What about the viability, T/C [11] of the same compound?
Its viability, T/C is 27.7%.

What about the viability, T/C [12] of the same compound?
The viability, T/C was 22.1%.

What about the viability, T/C [13] of the same compound?
The viability, T/C was 5.16%.

What about the viability, T/C [14] of the same compound?
Its viability, T/C is 6.78%.

What about the viability, T/C [15] of the same compound?
Its viability, T/C is 4.26%.

What about the viability, T/C [16] of the same compound?
Its viability, T/C is 6.19%.

And the viability, T/C [17]?
Its viability, T/C is 8.67%.

And the viability, T/C [18]?
Its viability, T/C is 5.16%.

What about the viability, T/C [19] of the same compound?
Its viability, T/C is 2.65%.

What about the viability, T/C [20] of the same compound?
The viability, T/C was 2.3%.

What about the viability, T/C [21] of the same compound?
The viability, T/C was 2.75%.

What about the viability, T/C [22] of the same compound?
Its viability, T/C is 3.22%.

And the viability, T/C [23]?
Its viability, T/C is 2.42%.

What about the viability, T/C [24] of the same compound?
The viability, T/C was 1.95%.

What about the viability, T/C [25] of the same compound?
The viability, T/C was 2.35%.

What about the viability, T/C [26] of the same compound?
The viability, T/C was 2.29%.

And the viability, T/C [27]?
Its viability, T/C is 2.53%.

And the viability, T/C [28]?
Its viability, T/C is 2.6%.

What about the viability, T/C [29] of the same compound?
The viability, T/C was 2.41%.

What about the viability, T/C [30] of the same compound?
Its viability, T/C is 1.71%.

And the viability, T/C [31]?
The viability, T/C was 2.58%.

And the viability, T/C [32]?
Its viability, T/C is 2.04%.

And the viability, T/C [33]?
Its viability, T/C is 1.61%.

And the viability, T/C [34]?
The viability, T/C was 1.52%.

And the viability, T/C [35]?
The viability, T/C was 1.71%.

And the viability, T/C [36]?
Its viability, T/C is 1.54%.

What does the source list for `CC1(C)CCC(Nc2ncc(C(F)(F)F)c(-c3c[nH]c4c(P(C)(C)=O)c(C#N)ccc34)n2)CN1` (stereo unspecified) + CCn1c(-c2cc(N3CCN(C)CC3)cnc2C(C)OC)c2c3cc(ccc31)-c1csc(n1)CC(NC(=O)C1CC1C)C(=O)N1CCCC(N1)C(=O)OCC(C)(C)C2?
IC50 (second compound 0.000949 µM): < 0.949 nM; IC50 (second compound 0.003 µM): < 0.949 nM; IC50 (second compound 0.00949 µM): < 0.949 nM; IC50 (second compound 0.03 µM): < 0.949 nM; IC50 (second compound 0.0949 µM): < 0.949 nM; IC50 (second compound 0.3 µM): < 0.949 nM; viability, T/C (second compound 0.000949 µM, first compound 0.000949 µM): 42.6%; viability, T/C (second compound 0.000949 µM, first compound 0.003 µM): 37.1%; viability, T/C (second compound 0.000949 µM, first compound 0.00949 µM): 22.9%; viability, T/C (second compound 0.000949 µM, first compound 0.03 µM): 16.4%; viability, T/C (second compound 0.000949 µM, first compound 0.0949 µM): 14.9%; viability, T/C (second compound 0.000949 µM, first compound 0.3 µM): 14%; viability, T/C (second compound 0.003 µM, first compound 0.000949 µM): 21.9%; viability, T/C (second compound 0.003 µM, first compound 0.003 µM): 16.8%; viability, T/C (second compound 0.003 µM, first compound 0.00949 µM): 10.4%; viability, T/C (second compound 0.003 µM, first compound 0.03 µM): 9.92%; viability, T/C (second compound 0.003 µM, first compound 0.0949 µM): 11.7%; viability, T/C (second compound 0.003 µM, first compound 0.3 µM): 8.33%; viability, T/C (second compound 0.00949 µM, first compound 0.000949 µM): 6.47%; viability, T/C (second compound 0.00949 µM, first compound 0.003 µM): 5.75%; viability, T/C (second compound 0.00949 µM, first compound 0.00949 µM): 5.48%; viability, T/C (second compound 0.00949 µM, first compound 0.03 µM): 5.23%; viability, T/C (second compound 0.00949 µM, first compound 0.0949 µM): 5.63%; viability, T/C (second compound 0.00949 µM, first compound 0.3 µM): 5.21%; viability, T/C (second compound 0.03 µM, first compound 0.000949 µM): 2.48%; viability, T/C (second compound 0.03 µM, first compound 0.003 µM): 2.69%; viability, T/C (second compound 0.03 µM, first compound 0.00949 µM): 2.99%; viability, T/C (second compound 0.03 µM, first compound 0.03 µM): 3.34%; viability, T/C (second compound 0.03 µM, first compound 0.0949 µM): 2.03%; viability, T/C (second compound 0.03 µM, first compound 0.3 µM): 1.64%; viability, T/C (second compound 0.0949 µM, first compound 0.000949 µM): 2.02%; viability, T/C (second compound 0.0949 µM, first compound 0.003 µM): 2.11%; viability, T/C (second compound 0.0949 µM, first compound 0.00949 µM): 1.57%; viability, T/C (second compound 0.0949 µM, first compound 0.03 µM): 1.95%; viability, T/C (second compound 0.0949 µM, first compound 0.0949 µM): 1.46%; viability, T/C (second compound 0.0949 µM, first compound 0.3 µM): 1.6%; viability, T/C (second compound 0.3 µM, first compound 0.000949 µM): 1.8%; viability, T/C (second compound 0.3 µM, first compound 0.003 µM): 1.64%; viability, T/C (second compound 0.3 µM, first compound 0.00949 µM): 1.69%; viability, T/C (second compound 0.3 µM, first compound 0.03 µM): 2.15%; viability, T/C (second compound 0.3 µM, first compound 0.0949 µM): 1.77%; viability, T/C (second compound 0.3 µM, first compound 0.3 µM): 1.54%

Which results are given for `C=CC(=O)Nc1cc(Nc2nccc(-c3cn(C)c4ccccc34)n2)c(OC)cc1N(C)CCN(C)C` + CCn1c(-c2cccnc2C(C)OC)c2c3cc(ccc31)N1CCOC(CC(NC(=O)C(C(C)C)N(C)C(=O)C3(F)CCN(C(=O)C#CC(C)(C)N(C)C)CC3)C(=O)N3CCCC(N3)C(=O)OCC(C)(C)C2)C1?
IC50 (second compound 0.000949 µM): 727 nM; IC50 (second compound 0.003 µM): 694 nM; IC50 (second compound 0.00949 µM): 682 nM; IC50 (second compound 0.03 µM): 699 nM; IC50 (second compound 0.0949 µM): 598 nM; IC50 (second compound 0.3 µM): 639 nM; viability, T/C [1]: 107%; viability, T/C [2]: 83.9%; viability, T/C [3]: 94.3%; viability, T/C [4]: 84.5%; viability, T/C [5]: 77.6%; viability, T/C [6]: 40%; viability, T/C [7]: 93.3%; viability, T/C [8]: 96.2%; viability, T/C [9]: 101%; viability, T/C [10]: 80%; viability, T/C [11]: 62.9%; viability, T/C [12]: 44.2%; viability, T/C [13]: 101%; viability, T/C [14]: 100%; viability, T/C [15]: 90.5%; viability, T/C [16]: 84.6%; viability, T/C [17]: 64.1%; viability, T/C [18]: 42.6%; viability, T/C [19]: 104%; viability, T/C [20]: 99.1%; viability, T/C [21]: 97.6%; viability, T/C [22]: 75.6%; viability, T/C [23]: 69.9%; viability, T/C [24]: 41.9%; viability, T/C [25]: 91.3%; viability, T/C [26]: 90.2%; viability, T/C [27]: 85%; viability, T/C [28]: 76.7%; viability, T/C [29]: 66%; viability, T/C [30]: 37.7%; viability, T/C [31]: 77.7%; viability, T/C [32]: 81%; viability, T/C [33]: 80.7%; viability, T/C [34]: 82.4%; viability, T/C [35]: 64.3%; viability, T/C [36]: 40.9%
